In patent US9676778B2, “Substituted pyrrolo[2,3-b]pyrazines as JAK3 inhibitors” (PRINCIPIA BIOPHARMA INC., priority 2012, dated 2017):
Blank lines part the entries; values can stand above or below the molecule they belong to.

What was measured:
JAK3 = biological target: T1, JAK3 (Homo sapiens, UniProt P52333); assay: Determination of Drug-Kinase Residence Time for JAK3 (TR-FRET tracer competition); type: binding; conditions: 1.5 uM compound, 500 nM JAK3, from 1 hour through 6 hours
T1 construct: purchased Invitrogen PV3855
Procedure: The read-out for slow dissociation is the ability of the compound of interest to block binding of a high affinity fluorescent tracer molecule to the kinase active site, as detected using time-resolved fluorescence resonance energy transfer (TR-FRET). The experiment was conducted in a buffer consisting of 50 mM Hepes pH 7.5, 10 mM MgCl2, 0.01% Triton X-100, and 1 mM EGTA.
The first step of the procedure was incubation of 500 nM JAK3 (Invitrogen Cat. #PV3855) with 1.5 uM of a compound disclosed in Table 1 for 30 minutes in a volume of 10 uL. The mixture was then diluted 5-fold by mixture of 10 uL JAK3/cmpd with 40 uL buffer. A 10 uL volume of the diluted kinase/compound solution was then added to a well of a small volume 384 well plate (such as Greiner Cat. #784076). In order to probe for reversibility of the kinase-compound binding interaction, a competition solution containing both a high affinity fluorescent tracer and an antibody coupled to Europium was prepared. For JAK3, the competition solution contained 8 uM Tracer 236 (Invitrogen Cat. #PV5592), which is a proprietary high affinity ligand for JAK3 coupled to the fluorophore AlexaFluor 647. The competition solution also contained 80 nM of an Anti-GST antibody coupled to Europium which is designed to bind the GST purification tag in JAK3.
After addition of 10 uL of the competition solution to the Greiner plate, the mixture was incubated for one hour or greater to allow time for dissociation of non-covalent inhibitors and binding of the high affinity tracer. It was expected that covalent and slow dissociating inhibitors will block binding of the tracer while rapidly dissociating non-covalent inhibitors will not. Binding of the tracer to JAK3 was detected using TR-FRET between the Europium moiety of the Anti-GST antibody and the AlexaFluor 647 group of Tracer 236. Binding was evaluated using a Perkin Elmer Envision instrument (Model 2101) equipped with filters and mirrors compatible with LANCE-type TR-FRET experiments. Data were plotted at percentage of signal obtained in the absence of competitor compound. […]

H78 = assay: Tumor Cell Proliferation Assay; type: cell-based; conditions: H78, CTCL (Sézary syndrome); 72 hr
Procedure: (§1) Cells (SZ-4 CTCL cells) were plated at a density of 5000 cells/well (384 well plates). Cells were plated in DMEM culture media supplemented with 0.5% fetal bovine serum. Other tumor cells (e.g. NK-TCL, T-ALL) were plated at densities of 2000-10,000 cells/well in culture media (e.g. DMEM, RPMI), containing 1%-20% FBS, dependent on the growth requirements of the individual tumor cell line. Compounds were diluted in culture media using serial dilution yielding final concentrations with 0 (DMSO control) or concentrations ranging from 0.5 nM to 10 uM. For the CTCL cells, after 1 hr incubation, at 37° C. in 95% air, 5% CO2, cells were induced with 100 ng/ml IL-2 for 72 hr. For the other cell types, cells were incubated without further induction for 72 hr. Cell Titer-Glo reagent was then added to the cells, contents mixed for 2 min, incubated at room temperature for 10 min, then luminescence was determined using a microplate luminometer. The percent inhibition was calculated based on a DMSO control for no inhibition and plotted as a function of test compound concentration from which an IC50 value was calculated.

H9 = assay: Tumor Cell Proliferation Assay; type: cell-based; conditions: Homo sapiens; H9, CTCL (Sézary syndrome); 72 hr
Procedure: as §1

HANK1 = assay: Tumor Cell Proliferation Assay; type: cell-based; conditions: HANK1, NK-TCL; 72 hr
Procedure: as §1

HH = assay: Tumor Cell Proliferation Assay; type: cell-based; conditions: Homo sapiens, CTCL (non MF, non Sézary syndrome), 72 hr
Procedure: as §1

Hut-102 = assay: Tumor Cell Proliferation Assay; type: cell-based; conditions: Hut-102, CTCL (Mycosis fungoides); 72 hr
Procedure: as §1

KHG1 = assay: Tumor Cell Proliferation Assay; type: cell-based; conditions: KHG1, NK-TCL; 72 hr
Procedure: as §1

MJ = assay: Tumor Cell Proliferation Assay; type: cell-based; conditions: CTCL (Unknown), 72 hr
Procedure: as §1

NKS1 = assay: Tumor Cell Proliferation Assay; type: cell-based; conditions: NKS1, NK-TCL; 72 hr
Procedure: as §1

SNK1 = assay: Tumor Cell Proliferation Assay; type: cell-based; conditions: SNK1, NK-TCL; 72 hr
Procedure: as §1

SNK6 = assay: Tumor Cell Proliferation Assay; type: cell-based; conditions: SNK6, NK-TCL; 72 hr
Procedure: as §1

SZ-4 CTCL cells = assay: Tumor Cell Proliferation Assay; type: cell-based; conditions: SZ-4, CTCL (Sézary syndrome); 100 ng/ml IL-2, 72 hr, Cell Titer-Glo
Procedure: as §1

[1] = tested on: mixed lymphocyte reaction; conditions: Kudlacz 2004; cited from earlier work
[2] = tested on: delayed-type hypersensitivity response; conditions: Kudlacz 2004; cited from earlier work
[3] = tested on: collagen-induced arthritis; conditions: Milici 2008; cited from earlier work
psoriasis = conditions: short-term study, Boy 2009; cited from earlier work
JAK3 protein = biological target: T2, JAK3 protein (Homo sapiens, UniProt P52333); assay: Reversibility of Binding (trypsin digestion, HPLC-MS/MS)
T2 sequence (P52333 1-1124): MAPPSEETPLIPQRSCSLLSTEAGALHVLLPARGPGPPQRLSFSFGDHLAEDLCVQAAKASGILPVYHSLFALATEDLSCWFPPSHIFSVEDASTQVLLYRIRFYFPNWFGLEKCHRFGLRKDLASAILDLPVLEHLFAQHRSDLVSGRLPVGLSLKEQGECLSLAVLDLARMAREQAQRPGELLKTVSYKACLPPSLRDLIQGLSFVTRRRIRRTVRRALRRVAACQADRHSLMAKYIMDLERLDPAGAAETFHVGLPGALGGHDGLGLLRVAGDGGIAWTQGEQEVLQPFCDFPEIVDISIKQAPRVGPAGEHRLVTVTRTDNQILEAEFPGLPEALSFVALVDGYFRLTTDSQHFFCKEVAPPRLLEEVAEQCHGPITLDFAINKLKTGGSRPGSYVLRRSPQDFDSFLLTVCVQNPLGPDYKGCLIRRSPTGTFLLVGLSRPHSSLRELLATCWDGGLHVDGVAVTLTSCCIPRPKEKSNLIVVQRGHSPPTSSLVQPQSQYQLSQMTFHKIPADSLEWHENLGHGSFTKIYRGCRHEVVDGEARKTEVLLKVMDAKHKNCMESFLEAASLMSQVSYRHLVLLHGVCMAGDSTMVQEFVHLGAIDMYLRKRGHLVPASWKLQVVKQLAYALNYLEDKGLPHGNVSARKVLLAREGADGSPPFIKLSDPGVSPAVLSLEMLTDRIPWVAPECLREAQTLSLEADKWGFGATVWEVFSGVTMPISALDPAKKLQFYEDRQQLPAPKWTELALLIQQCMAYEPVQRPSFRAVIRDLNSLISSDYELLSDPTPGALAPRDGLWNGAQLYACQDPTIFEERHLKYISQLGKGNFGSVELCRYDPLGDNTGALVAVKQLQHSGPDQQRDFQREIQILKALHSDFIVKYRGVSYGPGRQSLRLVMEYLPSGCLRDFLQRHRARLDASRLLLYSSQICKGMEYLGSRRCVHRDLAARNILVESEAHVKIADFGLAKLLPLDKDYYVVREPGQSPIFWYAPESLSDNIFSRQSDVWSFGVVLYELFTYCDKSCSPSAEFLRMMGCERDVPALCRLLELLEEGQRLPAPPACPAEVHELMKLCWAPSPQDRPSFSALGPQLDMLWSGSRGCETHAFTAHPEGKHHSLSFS
Procedure: The following approach was developed to differentiate compounds that form irreversible bonds with their targets, such as acrylamide compounds, from compound that bind reversibly. Reactions were prepared with the JAK3 protein target at a higher concentration than the compound of interest. The reactions were then digested with trypsin, disrupting proper folding of the target. […] The concentration of compound in solution was assessed both preceding and following perturbation using high performance liquid chromatography (HPLC) coupled to tandem mass spectrometry.

binding of Tracer 236 after pre-incubation with compound (JAK3): no increase
SMILES: CN(C)CC=CC(=O)Nc1cccc(-c2cnc3[nH]cc(C(=O)NC(C)(C)C)c3n2)c1 [Compound 3, N-(tert-butyl)-2-(3-(4-(dimethylamino)but-2-enamido)phenyl)-5H-pyrrolo[2,3-b]pyrazine-7-carboxamide]

binding of Tracer 236 after pre-incubation with compound (JAK3): no increase | IC50 (H78): 150 nM | IC50 (H9): 450 nM | IC50 (HANK1): 1870 nM | IC50 (HH): 2700 nM | IC50 (Hut-102): 104 nM | IC50 (KHG1): 498 nM | IC50 (MJ): > 5000 nM | IC50 (NKS1): 109 nM | IC50 (SNK1): 735 nM | IC50 (SNK6): 8420 nM | IC50 (SZ-4 CTCL cells): 56 nM
SMILES: C=CC(=O)Nc1cccc(-c2cnc3[nH]cc(C(=O)NC(C)(C)C)c3n2)c1 [Compound 2, 2-(3-acrylamidophenyl)-N-(tert-butyl)-5H-pyrrolo[2,3-b]pyrazine-7-carboxamide]

SMILES: C[C@@H]1CCN(C(=O)CC#N)C[C@@H]1N(C)c1ncnc2[nH]ccc12 [CP-690,550]
effect on mixed lymphocyte reaction (MLR) [1]: blocks | effect on delayed-type hypersensitivity response (DTH) [2]: blocks | effect in collagen-induced arthritis model [3]: blocks | efficacy in psoriasis patients (psoriasis): demonstrated efficacy

binding of Tracer 236 after pre-incubation with compound (JAK3): no increase | Compound in solution in the native state? (JAK3 protein; JAK3 at higher concentration than compound): no | Compound in solution in the denatured or digested state? (JAK3 protein; after digestion with trypsin): no
SMILES: C=CC(=O)Nc1cccc(-c2cnc3[nH]cc(C(=O)C(C)(C)C)c3n2)c1 [Compound 1, N-(3-(7-pivaloyl-5H-pyrrolo[2,3-b]pyrazin-2-yl)phenyl)acrylamide]
